From US20220079993A1, “NON-NATURALLY OCCURRING THERMOGENIC ADIPOCYTES, METHODS OF MAKING, AND METHODS OF USE THEREOF” (University of Georgia Research Foundation, Inc., priority 2019, published 2022)
Read-outs that look alike come from different tables or passages of the source.

Key:
Format in all cases: cell-based, human
beige adipocytes [1] = assay: High-throughput primary screen, lipolysis assay (glycerol release), 384-well; conditions: 20 μM, 24 hours of drug treatment, vs untreated beige adipocytes
Protocol: ADSCs were seeded at 5000 cell/cm^2 in 12-well plates, grown for 5 days and then induced to differentiate into GC for 20 days. […] Cells were treated with forskolin (20 μM) for indicated time periods and supernatant samples were collected. Lipolysis assay was performed with free glycerol reagent (Sigma, F6428-40ML), according to manufacturer instructions.
ADSCs were plated in 384-well plates at a density of 5000 cell/cm2 and grown to confluency over ˜4 days. Cells were then differentiated to beige adipocytes using B-8 medium for 21 days. All cell culture and incubations in the 384-well format were done at 37° C. and 5% CO2. […] The use of FDA-approved drugs may allow for re-purposing for therapeutic use.
(§1) Lipolysis assays were performed after 24 hours of drug treatment by measuring free glycerol released in the 384-well format, using the procedure described above. Absorbance for each compound was normalized to untreated control samples for each plate and calculated as a percent of the control. Cut-offs for “activating” and “inhibiting” compounds were set at 2-fold. Validation assays were performed for select compounds at a range of concentration doses.

beige adipocytes [2] = assay: Lipolysis validation assays of primary hits at three concentrations; conditions: Homo sapiens, Adipocyte, 24 h; for activity at 2.2 µM: Conc. 2.2 µM; for activity at 6.7 µM: Conc. 6.7 µM; for activity at 20 µM: Conc. 20 µM; for activity at 2200 µM: Conc. 2.2 mM
Protocol: (§2) ADSCs were seeded at 5000 cell/cm^2 in 12-well plates, grown for 5 days and then induced to differentiate into GC for 20 days. Prior to the assay, cells were washed in DPBS twice and then incubated with DMEM with 2% fatty-acid free BSA (Santa Crus, sc-500949) and Triascin C (5 μM). Cells were treated with forskolin (20 μM) for indicated time periods and supernatant samples were collected. Lipolysis assay was performed with free glycerol reagent (Sigma, F6428-40ML), according to manufacturer instructions.
as §1
Next, lipolysis assays were performed for all 111 compounds identified in the primary screen at three different concentrations, of which twenty-four were selected for further analysis based on their newness and/or reproducibility.

DIO2 = assay: qRT-PCR of DIO2 transcript in beige adipocytes -/+ forskolin; conditions: beige adipocytes stimulated with FSK (20 uM)
Protocol: FIG. 2A is a bar graph showing RNA expression levels by qRT-PCR for indicated genes (UCP1, DIO2) for adipose derived stem cells (ADSCs), GlucoCytes (GC), or GC with forskolin (FSK, 20 uM). FIG. 2B is a bar graph showing quantitation of immunostaining data (UCP1) from 6 independent fields of view. FIGS. 2C and 2D are bar graphs showing qRT-PCR of UCP1 of GC induced from an additional line purchased from ThermoFisher (2C) and an immortalized ADSC line purchased from ATCC (ASC52-telo) (2D). Transcript levels were determined by qRT-PCR. n=3 for each independent replicate. Data are mean+/−standard deviation. *P<0.0.05, **P<0.01, ***P<0.005. […] Cell lysates were collected at indicated days and RNA was isolated and analyzed by qRT-PCR for marker expression. […] Each line was differentiated for 21 days to beige adipocytes using B-8 medium and transcript levels of UCP1 (2Q), PPARGC1 (2R), IRF4 (2S), and ADIPOQ (2T) were measured by Taqman qRT-PCR for indicated genes +/−FSK for 6 hours (20 μM).
Cells were washed with DPBS, lysed directly on the plate and used for RNA isolation with the E.Z.N.A Total RNA Kit (Omega, R6834-02) according to manufacturer instructions. RNA quantitation was performed with the Biotek Synergy 2 plate reader and cDNA was synthesized using 1 ug of RNA with the iScript cDNA Synthesis Kit (Bio-Rad, 1708841). […]

GC = assay: Lipolysis assay (free glycerol) after forskolin
Protocol: as §2

## C=C[C@@]1(C)CC(=O)[C@]2(O)[C@@]3(C)[C@@H](O)CCC(C)(C)[C@@H]3[C@H](O)[C@H](OC(C)=O)[C@@]2(C)O1 [Forskolin]
Beige adipocytes [1]
  % Control (relative levels of glycerol release): 262.31 % control
Beige adipocytes [2]; read-out: % of Control (2)
  activity at 2.2 µM: 394%
  activity at 6.7 µM: 362%
  activity at 20 µM: 330%
Beige adipocytes [2]; read-out: % of Control (4)
  activity at 2.2 µM: 247%
  activity at 6.7 µM: 242%
  activity at 20 µM: 267%
Beige adipocytes [2]; read-out: % of Control (1)
  activity at 6.7 µM: 311%
  activity at 20 µM: 417%
  activity at 2200 µM: 417%
Beige adipocytes [2]; read-out: % of Control (3)
  activity at 6.7 µM: 241%
  activity at 20 µM: 253%
  activity at 2200 µM: 252%
DIO2
  DIO2 transcript level compared to ADSCs: 130 fold
GC; 4 hours of FSK (20 μM)
  Increase in free glycerol in the media: ~2 fold
GC; 8 hours of FSK (20 μM)
  Increase in free glycerol in the media: ~5 fold
